Assay: Solubility of flame retardant in styrene
Type: physicochemical

Compound | Solubility (at 25° C.) [wt %] | Solubility (at 40° C.) [wt %]
CN1C(=O)C2CC(Br)C(Br)CC2C1=O (stereo not drawn) [III] | >5 | 
O=C1NC(=O)C2CC(Br)C(Br)CC12 (stereo not drawn) [II] |  | >1
O=C1C2C3CC(C(Br)C3Br)C2C(=O)N1CCN1C(=O)C2C3CC(C(Br)C3Br)C2C1=O (stereo not drawn) [BN-451, reference compound] | <0.1 | 
